Experiment: Storage stability of statin Ca salt suspensions in omega-3 oils, statin and lactone quantified by HPLC
Assay type: physicochemical
Experimental: (§1) Atorvastatin Ca (At) in ethyl ester of EPA (97% purity from Equatec) was prepared as follows: The drug substance was weighed into a glass vessel containing a magnetic stir bar and the oil was then added by volume to make a 10 mg/ml suspension. The clear oil made an off-white suspension with the drug, which was uniformly dispersed by magnetic stirring. Each formulation also had 1% BHA via ethanol solution (1% of volume of the final suspension from a 100 mg/mL solution of BHA in anhydrous ethanol, resulting in 1 mg/mL BHA or 0.1% w/V). While stirring the suspensions were individually transferred by mass into 250 ul glass vial inserts to about 260 mg, which was essentially a complete fill. Vials were crimped with a teflon-backed seal and placed on stability stations: 25 C/60% RH, 40 C/75% RH and −20 C for reference. Samples were pulled at monthly intervals and prepared for HPLC analysis using a C18 column, samples were transferred, fully dissolved and diluted to 10.0 ml with dry DMF. At and corresponding lactone were quantified from HPLC chromatograms against standards of the At API. Integration was done using the Perkin Elmer software supplied with the HPLC system.
as §1, with “omega-3 free fatty acid” for “ethyl ester of EPA (97% purity from Equatec)”
as §1, with “Rosuvastatin” for “Atorvastatin”, “(Ro)” for “(At)”
RosuvastatinCa (Ro) in omega-3 free fatty acid was prepared as follows: The drug substance was weighed into a glass vessel containing a magnetic stir bar and the oil was then added by volume to make a 10 mg/ml suspension. The clear oil made an off-white suspension with the drug, which was uniformly dispersed by magnetic stirring. […]

[1] = Ethyl ester omega-3 oil, additive CaCO3, 25° C./60% RH, 3 months
[2] = Ethyl ester omega-3 oil, additive CaCO3, 40° C./75% RH, 1 month
[3] = Ethyl ester omega-3 oil, additive CaCO3, 40° C./75% RH, 3 months
[4] = Ethyl ester omega-3 oil, additive CaCl2, 25° C./60% RH, 3 months
[5] = Ethyl ester omega-3 oil, additive CaCl2, 40° C./75% RH, 1 month
[6] = Ethyl ester omega-3 oil, additive CaCl2, 40° C./75% RH, 3 months
[7] = Ethyl ester omega-3 oil, additive CaHPO4, 25° C./60% RH, 3 months
[8] = Ethyl ester omega-3 oil, additive CaHPO4, 40° C./75% RH, 1 month
[9] = Ethyl ester omega-3 oil, additive CaHPO4, 40° C./75% RH, 3 months
[10] = Ethyl ester omega-3 oil, additive None, 40° C./75% RH, 1 month
[11] = Free acid omega-3 oil, additive CaCO3, 25° C./60% RH, 3 months
[12] = Free acid omega-3 oil, additive CaCO3, 40° C./75% RH, 1 month
[13] = Free acid omega-3 oil, additive CaCO3, 40° C./75% RH, 3 months
[14] = Free acid omega-3 oil, additive CaCl2, 25° C./60% RH, 3 months
[15] = Free acid omega-3 oil, additive CaCl2, 40° C./75% RH, 1 month
[16] = Free acid omega-3 oil, additive CaCl2, 40° C./75% RH, 3 months
[17] = Free acid omega-3 oil, additive CaHPO4, 25° C./60% RH, 3 months
[18] = Free acid omega-3 oil, additive CaHPO4, 40° C./75% RH, 1 month
[19] = Free acid omega-3 oil, additive CaHPO4, 40° C./75% RH, 3 months
[20] = Free acid omega-3 oil, additive None, 40° C./75% RH, 1 month
[21] = Triglyceride omega-3 oil, additive None, 40° C./75% RH, 1 month

In the case of CC(C)c1nc(N(C)S(C)(=O)=O)nc(-c2ccc(F)cc2)c1/C=C/[C@@H](O)C[C@@H](O)CC(=O)O [Rosuvastatin, Rosuvastatin Ca], the “Ro Lactone” value [1] is reported as 0.31%, the Rosuvastatin [1] is reported as 101.9% and the “Ro Lactone” value [2] is reported as 0.79%. For the same compound, the Rosuvastatin [2] was 79.8%, the “Ro Lactone” value [3] was 5.56% and the Rosuvastatin [3] was 86.1%. For the same compound, the “Ro Lactone” value [4] was 0.23%, the Rosuvastatin [4] was 110.4% and the “Ro Lactone” value [5] was 0.09%. For the same compound, the Rosuvastatin [5] was 93.1%, the “Ro Lactone” value [6] was 1.03% and the Rosuvastatin [6] was 108.8%. The “Ro Lactone” value [7] was 0.26%, the Rosuvastatin [7] was 98.2% and the Rosuvastatin [8] was 96.2%. The “Ro Lactone” value [9] was 9.75%, the Rosuvastatin [9] was 83.7% and the “Ro Lactone” value [10] was 0.92%. The Rosuvastatin [10] was 95.0%, the “Ro Lactone” value [11] was 1.0% and the Rosuvastatin [11] was 100.2%. The “Ro Lactone” value [12] was 0.25%, the Rosuvastatin [12] was 105.4% and the “Ro Lactone” value [13] was 0.83%. For the same compound, the Rosuvastatin [13] was 92.4%, the “Ro Lactone” value [14] was 0.44% and the Rosuvastatin [14] was 101.9%. For the same compound, the “Ro Lactone” value [15] was 0.28%, the Rosuvastatin [15] was 105.2% and the “Ro Lactone” value [16] was 0.39%. The Rosuvastatin [16] was 98.7%, the “Ro Lactone” value [17] was 0.74% and the Rosuvastatin [17] was 99.9%. For the same compound, the “Ro Lactone” value [18] was 0.17%, the Rosuvastatin [18] was 99.5% and the “Ro Lactone” value [19] was 0.69%. The Rosuvastatin [19] was 102.2%, the “Ro Lactone” value [20] was 60.0% and the Rosuvastatin [20] was 39.1%. For the same compound, the “Ro Lactone” value [21] was 2.5% and the Rosuvastatin [21] was 100.6%.

With CC(C)c1c(C(=O)Nc2ccccc2)c(-c2ccccc2)c(-c2ccc(F)cc2)n1CC[C@@H](O)C[C@@H](O)CC(=O)O [Atorvastatin, Atorvastatin Ca] the “At Lactone” value [1] was 0.26%, the Atorvastatin [1] was 110.7% and the “At Lactone” value [2] was 0.34%. The Atorvastatin [2] was 97.6%, the “At Lactone” value [3] was 1.87% and the Atorvastatin [3] was 111.8%. For the same compound, the “At Lactone” value [4] was 0.35%, the Atorvastatin [4] was 98.2% and the “At Lactone” value [5] was 0.06%. For the same compound, the Atorvastatin [5] was 103.2%, the “At Lactone” value [6] was 0.48% and the Atorvastatin [6] was 97.1%. For the same compound, the “At Lactone” value [7] was 0.38%, the Atorvastatin [7] was 98.0% and the “At Lactone” value [8] was 0.21%. The Atorvastatin [8] was 100.9%, the “At Lactone” value [9] was 4.80% and the Atorvastatin [9] was 90.8%. The “At Lactone” value [10] was 0.18%, the Atorvastatin [10] was 98.0% and the “At Lactone” value [11] was 24.6%. The Atorvastatin [11] was 77.3%, the “At Lactone” value [12] was 1.5% and the Atorvastatin [12] was 101.8%. For the same compound, the “At Lactone” value [13] was 35.2%, the Atorvastatin [13] was 76.4% and the “At Lactone” value [14] was 18.6%. The Atorvastatin [14] was 84.2%, the “At Lactone” value [15] was 13.5% and the Atorvastatin [15] was 87.3%. The “At Lactone” value [16] was 19.8%, the Atorvastatin [16] was 90.7% and the “At Lactone” value [17] was 32.2%. For the same compound, the Atorvastatin [17] was 80.9%, the “At Lactone” value [18] was 13.6% and the Atorvastatin [18] was 99.5%. The “At Lactone” value [19] was 25.2%, the Atorvastatin [19] was 92.0% and the “At Lactone” value [20] was 75.6%. For the same compound, the Atorvastatin [20] was 22.8%, the “At Lactone” value [21] was 4.6% and the Atorvastatin [21] was 85.3%.

Source: US20140142127A1, “Stable Compositions of HMG-COA Reductase Inhibitors and Omega-3 Oils” (Almburg, LLC, priority 2012, published 2014)
